Experimental data reported in patent US20120253470A1, “COMPOSITIONS FOR BONE TISSUE REPAIR AND USES THEREOF” (PRESIDENT AND FELLOWS OF HARVARD COLLEGE, priority 2011, published 2012).

Legend:
[1] = system: segmental femur defect; assay: Repair of long bone (segmental femur) defect in mice; format: in vivo, C57/BI/6 wild-type mice
Method: (§1) The model animals used in this investigation were 10 week-old, skeletally mature, male C57/BI/6 wild-type mice. Mice are anesthetized by intramuscular injection with ketamine (7.5 mg/100 g body weight and xylazine (5-10 mg/kg body weight). The skin is shaved with an electric device and then scrubbed with a povidone-iodine scrub (e.g., Betadine®) and 70% alcohol, taking care to scrub from the center of the site toward the periphery. The site is then rinsed with 70% alcohol. At least three alternating preparations of germicidal scrub and rinse are performed. Finally, the area is draped with sterile drapes, which not only help to prevent contaminants from entering the surgical field, but also provide a sterile area on which to lay sterile instruments during surgery.
Full-thickness flaps are utilized in order to gain access to the femur. A roughly 5 mm length segmental femur defect is created on the C57/BI/6 mice. Once the defect has been created all mice received cell-free grafts. Control mice received no additional treatment, while the second group of mice received treatment with prom-1 #237. Soft tissues are closed with sutures. After the surgery, the animals are monitored until fully alert and monitoring continues thereafter for any issues related to discomfort, pain or infection. […] Medication to control pain is also delivered right after surgery and if detected subsequently. […] The animal is monitored continuously until it regains sternal recumbence and is capable of holding its head up, and is returned to its regular cage only when it is alert, mobile and breathing normally. […]
Post-surgical observations include a minimum daily observation, including weekends and holidays, of the condition of the animal and the surgical site. […] Pain/distress is monitored by monitoring the physiological parameters and behavioral responses although distress is more difficult to define and identify than pain. […] The animals are evaluated at day 14 after the creation of the defect to determine the extent of repair and regeneration.

[2] = system: craniotomy defect of the calvaria; assay: Repair of calvarial bone defect in mice; format: in vivo, C57/BI/6 wild-type mice; conditions: prom-1 #237 added to composition containing FDBA
Method: as §1, with “One of the most common models used to test bone repair methods and compositions is defects in the calvarial bone in a model organism. Mice, rats, and rabbits are all frequently used in this model of flat bone repair. The model” for “The model”, “weight). The calvaria skin is” for “weight). The skin is”
Full-thickness flaps are utilized in order to gain access to the calvaria. […] After the surgery, the animals are monitored until fully alert and monitoring continues thereafter for any issues related to discomfort, pain or infection. […] Medication to control pain is also delivered right after surgery and if detected subsequently. […] The animal is monitored continuously until it regains sternal recumbence and is capable of holding its head up, and is returned to its regular cage only when it is alert, mobile and breathing normally. […]
Post-surgical observations include a minimum daily observation, including weekends and holidays, of the condition of the animal and the surgical site. […] Pain/distress is monitored by monitoring the physiological parameters and behavioral responses although distress is more difficult to define and identify than pain. […] The animals are evaluated at day 56 after the creation of the defect to determine the extent of repair and regeneration.

[3] = femur defect with cell-free graft, day 14

Sequence: DRVQRQTTTVVA (SEQ ID NO: 35) [prom-1 #237]
- ability of existing mouse cells to colonize the scaffold material and repair a large defect in the long bone [1, 3]: greatly increased
- total extent of recovery [1, 3]: markedly improved
- new bone growth / callus formation at the defect (FIG. 1B) ([1]; roughly 5 mm segmental femur defect, given in addition to cell-free graft, evaluated at day 14, versus graft only): significant callus formation
- time to recovery [2]: significantly reduced
- ability of existing mouse cells to colonize the FDBA scaffold material and repair a large defect in the calvarial flat bone ([2]; day 56): greatly increases
- total extent of recovery ([2]; day 56): markedly improved
